Laboratory results published in US20240269139A1, “COMPOUNDS FOR TARGETED PROTEIN DEGRADATION OF KINASES” (DANA-FARBER CANCER INSTITUTE, INC., priority 2020, published 2024).
Read-outs that look alike come from different tables or passages of the source.

Columns and labels:
Type in all cases: cell-based
[1] = biological target: protein kinases (human kinome) (Homo sapiens, UniProt P23443); conditions: for logFC: RPS6KB1 (P23443-1)
[2] = biological target: protein kinases (human kinome) (Homo sapiens, UniProt P35790); conditions: CHKA P35790
[3] = biological target: protein kinases (human kinome) (Homo sapiens, UniProt P53350)
[4] = biological target: T1, protein kinases (human kinome) (Homo sapiens, UniProt Q08881); conditions: for logFC: ITK (Q08881) protein abundance, degrader vs DMSO
T1 sequence (Q08881 1-620): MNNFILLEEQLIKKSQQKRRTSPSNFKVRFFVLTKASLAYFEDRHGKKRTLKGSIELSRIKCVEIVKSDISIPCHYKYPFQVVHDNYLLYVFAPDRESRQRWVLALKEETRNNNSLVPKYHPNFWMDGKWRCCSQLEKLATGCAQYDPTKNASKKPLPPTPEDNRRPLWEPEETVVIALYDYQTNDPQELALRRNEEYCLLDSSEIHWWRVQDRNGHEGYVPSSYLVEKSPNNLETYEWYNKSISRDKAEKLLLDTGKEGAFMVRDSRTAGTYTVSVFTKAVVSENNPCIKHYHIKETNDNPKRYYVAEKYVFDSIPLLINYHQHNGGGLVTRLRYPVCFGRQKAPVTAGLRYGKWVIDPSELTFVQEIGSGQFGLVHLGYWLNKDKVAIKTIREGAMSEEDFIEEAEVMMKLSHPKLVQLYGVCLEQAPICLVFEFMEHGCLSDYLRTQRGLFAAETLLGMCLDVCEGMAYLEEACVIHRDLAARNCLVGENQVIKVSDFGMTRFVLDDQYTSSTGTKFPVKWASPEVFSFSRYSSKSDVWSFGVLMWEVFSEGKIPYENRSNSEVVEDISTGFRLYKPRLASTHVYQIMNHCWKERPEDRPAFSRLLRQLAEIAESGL

[5] = biological target: protein kinases (human kinome) (Homo sapiens, UniProt Q9BVS4); conditions: RIOK2 Q9BVS4
[6] = biological target: T2, protein kinases (human kinome) (Homo sapiens, UniProt O95835); conditions: LATS1 O95835
T2 sequence (O95835 1-1130): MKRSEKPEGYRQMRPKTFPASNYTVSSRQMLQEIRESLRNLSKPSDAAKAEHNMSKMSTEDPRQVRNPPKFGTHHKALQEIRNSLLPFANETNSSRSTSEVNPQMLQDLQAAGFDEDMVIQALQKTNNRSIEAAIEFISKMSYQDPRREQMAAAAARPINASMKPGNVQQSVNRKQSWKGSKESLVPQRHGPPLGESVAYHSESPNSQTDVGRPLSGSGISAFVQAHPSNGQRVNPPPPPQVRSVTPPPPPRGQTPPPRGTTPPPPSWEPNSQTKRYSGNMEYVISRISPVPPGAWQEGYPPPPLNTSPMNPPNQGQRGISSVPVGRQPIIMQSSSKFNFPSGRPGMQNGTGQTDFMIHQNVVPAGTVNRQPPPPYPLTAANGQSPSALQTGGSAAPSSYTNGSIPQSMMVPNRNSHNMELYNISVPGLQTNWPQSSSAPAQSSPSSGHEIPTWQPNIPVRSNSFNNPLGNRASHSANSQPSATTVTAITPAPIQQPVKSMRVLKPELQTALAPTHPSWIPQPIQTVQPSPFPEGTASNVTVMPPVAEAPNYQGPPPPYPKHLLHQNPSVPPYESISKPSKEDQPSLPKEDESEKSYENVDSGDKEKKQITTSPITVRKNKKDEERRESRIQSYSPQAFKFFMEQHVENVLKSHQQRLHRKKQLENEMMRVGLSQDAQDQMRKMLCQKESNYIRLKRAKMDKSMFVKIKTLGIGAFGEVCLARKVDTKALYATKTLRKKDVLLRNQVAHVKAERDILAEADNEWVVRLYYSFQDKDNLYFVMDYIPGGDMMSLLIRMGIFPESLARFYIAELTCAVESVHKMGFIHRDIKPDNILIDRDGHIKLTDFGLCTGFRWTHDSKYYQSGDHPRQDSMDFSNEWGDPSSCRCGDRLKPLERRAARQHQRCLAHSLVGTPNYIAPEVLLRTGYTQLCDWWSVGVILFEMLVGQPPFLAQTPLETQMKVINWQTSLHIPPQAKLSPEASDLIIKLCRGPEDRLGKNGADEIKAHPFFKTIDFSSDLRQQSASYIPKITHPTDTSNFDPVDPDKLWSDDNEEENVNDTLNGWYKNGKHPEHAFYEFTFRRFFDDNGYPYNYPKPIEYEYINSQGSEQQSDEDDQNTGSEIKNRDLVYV

[7] = experiment wp016, direction of change down
[8] = PLK1 P53350, experiment wp133, 1 hr
[9] = PLK1 P53350, experiment wp133, 2 hr
[10] = PLK1 P53350, experiment wp133, 4 hr

protein kinases (human kinome) (Homo sapiens, UniProt Q9BVS4), sequence (Q9BVS4 whole entry): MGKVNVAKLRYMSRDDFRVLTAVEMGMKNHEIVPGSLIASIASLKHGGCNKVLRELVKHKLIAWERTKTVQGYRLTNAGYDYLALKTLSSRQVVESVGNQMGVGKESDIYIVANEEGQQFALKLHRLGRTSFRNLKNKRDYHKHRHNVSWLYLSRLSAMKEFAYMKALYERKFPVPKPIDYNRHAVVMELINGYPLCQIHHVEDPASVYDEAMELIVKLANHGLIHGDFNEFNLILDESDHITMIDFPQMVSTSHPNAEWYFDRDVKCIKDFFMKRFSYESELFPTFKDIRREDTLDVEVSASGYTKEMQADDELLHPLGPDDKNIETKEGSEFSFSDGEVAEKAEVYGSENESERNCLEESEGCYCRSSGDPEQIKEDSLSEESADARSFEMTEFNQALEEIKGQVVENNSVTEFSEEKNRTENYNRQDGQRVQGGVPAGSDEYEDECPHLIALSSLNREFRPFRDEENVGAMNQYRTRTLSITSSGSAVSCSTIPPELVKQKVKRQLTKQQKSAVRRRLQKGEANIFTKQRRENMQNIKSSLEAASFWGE
protein kinases (human kinome) (Homo sapiens, UniProt P35790), sequence (P35790 whole entry): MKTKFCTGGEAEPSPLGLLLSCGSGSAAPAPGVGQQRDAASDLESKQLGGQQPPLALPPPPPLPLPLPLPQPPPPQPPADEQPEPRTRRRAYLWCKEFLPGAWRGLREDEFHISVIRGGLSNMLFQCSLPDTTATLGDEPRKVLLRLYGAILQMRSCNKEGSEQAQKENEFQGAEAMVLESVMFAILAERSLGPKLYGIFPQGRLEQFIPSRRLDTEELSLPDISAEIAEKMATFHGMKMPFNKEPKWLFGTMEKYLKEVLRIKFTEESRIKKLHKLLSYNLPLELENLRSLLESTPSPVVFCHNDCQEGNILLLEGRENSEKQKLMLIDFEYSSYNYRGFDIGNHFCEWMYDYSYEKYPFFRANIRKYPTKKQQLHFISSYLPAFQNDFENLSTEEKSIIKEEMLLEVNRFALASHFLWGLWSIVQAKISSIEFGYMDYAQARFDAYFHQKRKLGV
protein kinases (human kinome) (Homo sapiens, UniProt P23443), sequence (P23443 whole entry): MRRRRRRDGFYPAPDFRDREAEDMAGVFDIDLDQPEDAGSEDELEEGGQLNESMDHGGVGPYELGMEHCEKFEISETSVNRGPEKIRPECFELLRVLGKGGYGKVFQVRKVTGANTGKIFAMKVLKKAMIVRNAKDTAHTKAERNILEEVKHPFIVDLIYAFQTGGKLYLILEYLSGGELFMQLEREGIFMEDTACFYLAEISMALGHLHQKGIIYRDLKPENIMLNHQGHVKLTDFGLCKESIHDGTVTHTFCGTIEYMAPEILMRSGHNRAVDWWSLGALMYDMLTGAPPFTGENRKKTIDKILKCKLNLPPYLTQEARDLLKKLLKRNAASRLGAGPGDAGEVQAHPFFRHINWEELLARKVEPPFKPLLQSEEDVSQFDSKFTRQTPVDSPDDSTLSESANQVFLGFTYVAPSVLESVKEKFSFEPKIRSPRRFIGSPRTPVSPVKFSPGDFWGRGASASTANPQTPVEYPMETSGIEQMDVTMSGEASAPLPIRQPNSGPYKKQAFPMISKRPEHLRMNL
protein kinases (human kinome) (Homo sapiens, UniProt P53350), sequence (P53350 whole entry): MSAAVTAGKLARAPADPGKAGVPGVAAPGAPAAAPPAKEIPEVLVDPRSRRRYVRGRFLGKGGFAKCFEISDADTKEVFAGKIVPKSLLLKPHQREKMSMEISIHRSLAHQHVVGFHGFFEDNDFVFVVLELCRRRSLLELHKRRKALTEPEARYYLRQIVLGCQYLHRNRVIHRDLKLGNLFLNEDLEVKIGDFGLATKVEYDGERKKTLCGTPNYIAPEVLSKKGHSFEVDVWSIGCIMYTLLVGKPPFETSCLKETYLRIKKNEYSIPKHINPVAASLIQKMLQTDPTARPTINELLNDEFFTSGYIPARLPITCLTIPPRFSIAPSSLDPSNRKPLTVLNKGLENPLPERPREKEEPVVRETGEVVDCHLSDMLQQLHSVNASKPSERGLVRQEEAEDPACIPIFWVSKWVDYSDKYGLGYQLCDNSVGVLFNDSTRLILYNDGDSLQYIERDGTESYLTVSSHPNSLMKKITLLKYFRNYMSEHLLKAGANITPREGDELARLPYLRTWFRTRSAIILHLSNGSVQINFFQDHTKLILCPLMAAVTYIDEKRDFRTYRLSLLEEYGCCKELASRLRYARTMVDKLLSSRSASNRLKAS

Compound: Cc1ncsc1-c1ccc([C@H](C)NC(=O)[C@@H]2C[C@@H](O)CN2C(=O)[C@@H](NC(=O)CCCCCN2CCc3cc(Nc4ncc(C5CC5)c(NCCCNC(=O)C5CCC5)n4)ccc3C2)C(C)(C)C)cc1 [BSJ.05.026]
- logFC of RPS6KB1 (P23443-1) ([1]; Experiment wp195): −0.5629
- logFC ([1]; experiment wp195): −0.5629

Compound: Cc1ccc(NC(=O)c2cccc(C(F)(F)F)c2)cc1N1Cc2cnc(Nc3ccc(N4CCN(CCCOc5cccc6c5C(=O)N(C5CCC(=O)NC5=O)C6=O)CC4)nc3)nc2N(C)C1=O (stereo not shown) [DB0662]
- logFC ([2]; experiment wp168): −0.3222

Compound: CC(C)(C)c1nc(-c2cccc(NS(=O)(=O)c3c(F)cccc3F)c2F)c(-c2ccnc(NCCOCCNC(=O)CCOCCOCCNc3cccc4c3C(=O)N(C3CCC(=O)NC3=O)C4=O)n2)s1 (stereo not shown) [DD.03.106]
- logFC PLK1 ([3]; PLK1 P53350, experiment wp147, 4 uM): −0.3533
- logFC ([3]; PLK (P53350), experiment wp147, 4 uM): −0.3533

Compound: Cc1ncsc1-c1ccc([C@H](C)NC(=O)[C@@H]2C[C@@H](O)CN2C(=O)[C@@H](NC(=O)CCOCCOCCN2CCN(c3ccc(Nc4ncc(Cl)c(Nc5ccccc5S(=O)(=O)C(C)C)n4)cc3)CC2)C(C)(C)C)cc1 [FMF.06.098.1]
- logFC ([2]; experiment wp108): −0.3716
- logFC ([2]; experiment wp131): −0.4457
- logFC ITK (Q08881) ([4]; Experiment wp108): −0.3557
- logFC ITK (Q08881) ([4]; experiment wp108, direction of change down): −0.3557
- logFC ITK (Q08881) ([4]; experiment wp131): −0.3625
- logFC ITK (Q08881) ([4]; experiment wp131, direction of change down): −0.3625

Compound: Cc1cnc(Nc2ccc(N3CCN(CCCCCCC(=O)N[C@H](C(=O)N4C[C@H](O)C[C@H]4C(=O)N[C@@H](C)c4ccc(-c5scnc5C)cc4)C(C)(C)C)CC3)cc2)nc1Nc1cccc(S(=O)(=O)NC(C)(C)C)c1 [JWG.123]
- logFC of RPS6KB1 (P23443-1) ([1]; Experiment wp195): −0.3426
- logFC ([1]; experiment wp195): −0.3426

Compound: CCc1cnn2c(N(Cc3ccc(N)nc3)C(=O)CCOCCOCCOCCNC(=O)CNc3cccc4c3C(=O)N(C3CCC(=O)NC3=O)C4=O)cc(N3CCCC[C@H]3CCO)nc12 (stereo partly shown) [MFH.5.115.2]
- logFC ([3]; PLK1 P53350, experiment wp076): −0.56
- logFC PLK1 ([3]; PLK1 P53350, experiment wp076): −0.56
- logFC ([5]; experiment wp076): −0.8067
- logFC RIOK2 ([5]; experiment wp076): −0.8067

Compound: Cc1ncsc1-c1ccc([C@H](C)NC(=O)[C@@H]2C[C@@H](O)CN2C(=O)[C@@H](NC(=O)CCCCCN2CCN(c3ccc(Nc4ncc5scc(-c6cccc(NS(C)(=O)=O)c6)c5n4)cc3)CC2)C(C)(C)C)cc1 [RSS0680, (2S,4R)-1-((S)-3,3-Dimethyl-2-(6-(4-(4-((7-(3-(methylsulfonamido)phenyl)thieno[3,2-d]pyrimidin-2-yl)amino)phenyl)piperazin-1-yl)hexanamido)butanoyl)-4-hydroxy-N—((S)-1-(4-(4-methylthiazol-5yl)phenyl)ethyl)pyrrolidine-2-carboxamide]
- logFC ([6]; experiment wp117): −0.4143
- logFC LATS1 ([6]; experiment wp117): −0.4143
- logFC of RPS6KB1 (P23443-1) ([1]; Experiment wp117): −0.3893
- logFC ([1]; experiment wp080): −0.4358
- logFC ([1]; experiment wp117): −0.3893
- logFC of RPS6KB1 (P23443-1) ([1]; experiment wp080): −0.4358

Compound: Nc1ncnc2c1c(-c1ccc(Oc3ccccc3)cc1)nn2[C@H]1CC[C@H](N2CCN(CCOCCNC(=O)CNc3cccc4c3C(=O)N(C3CCC(=O)NC3=O)C4=O)CC2)CC1 (stereo partly shown) [SB1.G.181]
- logFC ([6]; experiment wp071): −1.273
- logFC LATS1 ([6]; experiment wp071): −1.273

Compound: CC(C)S(=O)(=O)c1ccccc1Nc1nc(Nc2ccc(N3CCN(CCOCCNC(=O)CNc4cccc5c4C(=O)N(C4CCC(=O)NC4=O)C5=O)CC3)cc2)ncc1Cl (stereo not shown) [SK.3.91]
- logFC ITK (Q08881) ([4]; Experiment wp103): −1.663
- logFC ITK (Q08881) ([4]; Experiment wp107): −1.963
- logFC ITK (Q08881) ([4]; Experiment wp160, 2 hr): −0.799
- logFC ([4]; 2 hr, down): −0.799
- logFC ([4]; 4 hr, down): −1.783
- logFC ITK (Q08881) ([4]; experiment wp016): −2.308
- logFC ITK (Q08881) ([4]; experiment wp016, 1 uM): −2.033
- logFC ITK (Q08881) ([4]; experiment wp016, 1 uM, direction of change down): −2.033
- logFC ITK (Q08881) [4, 7]: −2.308
- logFC ITK (Q08881) ([4]; experiment wp103, direction of change down): −1.663
- logFC ITK (Q08881) ([4]; experiment wp107, direction of change down): −1.963
- logFC ITK (Q08881) ([4]; experiment wp133, 1 hr): −0.3741
- logFC ITK (Q08881) ([4]; experiment wp133, 1 hr, direction of change down): −0.3741
- logFC ITK (Q08881) ([4]; experiment wp133, 2 hr): −0.8321
- logFC ITK (Q08881) ([4]; experiment wp133, 2 hr, direction of change down): −0.8321
- logFC ITK (Q08881) ([4]; experiment wp133, 4 hr): −1.654
- logFC ITK (Q08881) ([4]; experiment wp133, 4 hr, direction of change down): −1.654
- logFC ITK (Q08881) ([4]; experiment wp160, 4 hr): −1.783
- logFC ([6]; experiment wp105): −0.3335
- logFC LATS1 ([6]; experiment wp105): −0.3335
- logFC ([6]; experiment wp107): −0.4609
- logFC LATS1 ([6]; experiment wp107): −0.4609
- logFC ([6]; experiment wp160, 4 hr): −0.3463
- logFC LATS1 ([6]; experiment wp160, 4 hr): −0.3463
- logFC [3, 8]: −0.5591
- logFC PLK1 [3, 8]: −0.5591
- logFC [3, 9]: −0.5804
- logFC PLK1 [3, 9]: −0.5804
- logFC [3, 10]: −0.7482
- logFC PLK1 [3, 10]: −0.7482
- logFC of RPS6KB1 (P23443-1) ([1]; Experiment wp107): −0.4197
- logFC ([1]; experiment wp107): −0.4197
- logFC ([5]; experiment wp016, 1 uM): −0.6319
- logFC RIOK2 ([5]; experiment wp016, 1 uM): −0.6319
- logFC ([5]; experiment wp103): −0.8311
- logFC RIOK2 ([5]; experiment wp103): −0.8311
- logFC ([5]; experiment wp105): −0.482
- logFC RIOK2 ([5]; experiment wp105): −0.482
- logFC ([5]; experiment wp107): −0.7393
- logFC RIOK2 ([5]; experiment wp107): −0.7393
- logFC ([5]; experiment wp133, 4 hr): −0.6476
- logFC RIOK2 ([5]; experiment wp133, 4 hr): −0.6476
- logFC ([5]; experiment wp160, 4 hr): −0.4416
- logFC RIOK2 ([5]; experiment wp160, 4 hr): −0.4416

Compound: CC(C)S(=O)(=O)c1ccccc1Nc1nc(Nc2ccc(N3CCN(CCOCCNC(=O)CNc4ccc5c(c4)C(=O)N(C4CCC(=O)NC4=O)C5=O)CC3)cc2)ncc1Cl (stereo not shown) [SK.3.93]
- logFC ITK (Q08881) ([4]; experiment wp016): −2.136
- logFC ITK (Q08881) [4, 7]: −2.136

Compound: CC(C)S(=O)(=O)c1ccccc1Nc1nc(Nc2ccc(N3CCN(CCOCCOCCC(=O)NCCNc4cccc5c4CN(C4CCC(=O)NC4=O)C5=O)CC3)cc2)ncc1Cl (stereo not shown) [TL13.97]
- logFC ([4]; direction of change down): −2.28
- logFC ITK (Q08881) ([4]; experiment wp137): −2.28
